Experimental data taken from ChEMBL document CHEMBL5257075, “Design, synthesis and biological evaluation of quinazoline SOS1 inhibitors” (Bioorg Med Chem Lett, 2023).

Experiments:
[1] = biological target: T1, Son of sevenless homolog 1 (Homo sapiens) (UniProt Q07889); test: Inhibition of SOS1 (unknown origin) at 500 nM
T1 sequence (whole entry): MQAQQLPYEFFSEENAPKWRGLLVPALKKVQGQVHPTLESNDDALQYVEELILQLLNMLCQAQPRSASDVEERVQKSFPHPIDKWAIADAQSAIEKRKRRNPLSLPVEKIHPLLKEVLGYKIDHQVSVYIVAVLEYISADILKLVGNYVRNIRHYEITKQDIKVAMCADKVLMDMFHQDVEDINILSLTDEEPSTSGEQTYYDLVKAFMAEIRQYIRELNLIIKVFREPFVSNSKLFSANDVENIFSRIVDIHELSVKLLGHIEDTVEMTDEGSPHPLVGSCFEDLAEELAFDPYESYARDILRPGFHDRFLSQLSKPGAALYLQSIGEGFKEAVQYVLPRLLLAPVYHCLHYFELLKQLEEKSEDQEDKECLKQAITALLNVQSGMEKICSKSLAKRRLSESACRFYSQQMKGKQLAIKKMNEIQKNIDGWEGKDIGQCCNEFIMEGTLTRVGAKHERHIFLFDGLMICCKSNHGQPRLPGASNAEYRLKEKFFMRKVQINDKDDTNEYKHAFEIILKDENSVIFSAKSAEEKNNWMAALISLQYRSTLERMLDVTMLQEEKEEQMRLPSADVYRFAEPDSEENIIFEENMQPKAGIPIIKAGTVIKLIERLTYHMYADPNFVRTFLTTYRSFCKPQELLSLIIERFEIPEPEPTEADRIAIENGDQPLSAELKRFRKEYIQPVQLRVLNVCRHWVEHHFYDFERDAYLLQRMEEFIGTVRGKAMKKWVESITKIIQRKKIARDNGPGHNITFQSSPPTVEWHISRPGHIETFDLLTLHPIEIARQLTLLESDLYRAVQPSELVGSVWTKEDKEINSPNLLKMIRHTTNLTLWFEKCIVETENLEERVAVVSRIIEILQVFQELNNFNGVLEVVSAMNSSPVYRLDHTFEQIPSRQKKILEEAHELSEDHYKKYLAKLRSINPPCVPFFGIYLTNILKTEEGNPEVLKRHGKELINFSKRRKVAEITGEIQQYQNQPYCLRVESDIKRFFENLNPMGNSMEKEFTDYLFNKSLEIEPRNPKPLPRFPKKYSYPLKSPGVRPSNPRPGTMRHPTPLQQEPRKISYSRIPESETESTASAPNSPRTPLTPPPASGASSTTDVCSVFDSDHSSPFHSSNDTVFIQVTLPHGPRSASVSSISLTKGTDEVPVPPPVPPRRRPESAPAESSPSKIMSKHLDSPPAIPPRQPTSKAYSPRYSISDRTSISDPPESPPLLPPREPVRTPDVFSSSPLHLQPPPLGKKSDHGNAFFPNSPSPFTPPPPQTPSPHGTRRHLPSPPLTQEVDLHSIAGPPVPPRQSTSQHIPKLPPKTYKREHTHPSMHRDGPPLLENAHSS

[2] = biological target: T2, Son of sevenless homolog 1 (Homo sapiens, UniProt Q07889); test: Inhibition of SOS1 (unknown origin)
T2 sequence (Q07889 whole entry): T1 sequence (whole entry)

K562 = test: Antiproliferative activity against human K562 cells assessed as inhibition of cell proliferation; assay type: functional, cell-based
[3] = biological target: Epidermal growth factor receptor (Homo sapiens) (UniProt P00533); test: Inhibition of wild type EGFR (unknown origin) at 5000 nM
NCI-H838 = test: Antiproliferative activity against human NCI-H838 cells assessed as inhibition of cell proliferation; assay type: functional, cell-based

Chain of Epidermal growth factor receptor (Homo sapiens) (P00533 whole entry): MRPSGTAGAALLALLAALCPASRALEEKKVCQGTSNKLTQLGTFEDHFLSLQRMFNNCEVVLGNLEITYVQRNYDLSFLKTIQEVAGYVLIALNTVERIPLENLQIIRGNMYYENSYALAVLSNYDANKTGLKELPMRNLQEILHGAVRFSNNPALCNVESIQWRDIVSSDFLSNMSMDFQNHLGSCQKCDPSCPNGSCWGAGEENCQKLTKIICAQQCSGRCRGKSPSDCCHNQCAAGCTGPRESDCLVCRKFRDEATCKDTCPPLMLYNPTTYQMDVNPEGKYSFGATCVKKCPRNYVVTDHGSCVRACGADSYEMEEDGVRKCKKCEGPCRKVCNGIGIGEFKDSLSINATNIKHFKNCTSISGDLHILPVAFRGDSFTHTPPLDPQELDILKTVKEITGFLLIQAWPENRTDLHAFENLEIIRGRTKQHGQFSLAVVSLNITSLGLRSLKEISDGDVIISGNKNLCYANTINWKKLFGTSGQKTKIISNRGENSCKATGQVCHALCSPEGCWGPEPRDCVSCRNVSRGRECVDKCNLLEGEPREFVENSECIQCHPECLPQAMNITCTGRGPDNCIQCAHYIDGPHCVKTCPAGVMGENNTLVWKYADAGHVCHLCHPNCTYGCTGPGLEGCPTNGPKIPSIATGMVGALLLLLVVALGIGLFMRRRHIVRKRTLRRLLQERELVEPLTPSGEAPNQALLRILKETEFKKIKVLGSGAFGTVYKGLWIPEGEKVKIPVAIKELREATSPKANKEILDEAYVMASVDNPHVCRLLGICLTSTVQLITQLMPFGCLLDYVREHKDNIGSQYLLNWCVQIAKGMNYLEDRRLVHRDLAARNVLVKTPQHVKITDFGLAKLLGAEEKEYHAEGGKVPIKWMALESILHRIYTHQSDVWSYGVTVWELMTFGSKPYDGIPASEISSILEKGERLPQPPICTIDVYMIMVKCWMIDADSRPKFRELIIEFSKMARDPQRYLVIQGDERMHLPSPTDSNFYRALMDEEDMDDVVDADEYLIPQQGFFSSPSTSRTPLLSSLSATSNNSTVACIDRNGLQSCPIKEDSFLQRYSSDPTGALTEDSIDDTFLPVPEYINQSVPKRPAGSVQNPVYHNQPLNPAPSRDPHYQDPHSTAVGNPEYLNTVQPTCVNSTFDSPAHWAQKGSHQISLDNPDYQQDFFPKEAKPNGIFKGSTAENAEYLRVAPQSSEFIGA

| Compound | inhibition [1] [%] | IC50 [2] [nM] | IC50 (K562) [nM] | inhibition [3] [%] | IC50 (NCI-H838) [nM] |
| --- | --- | --- | --- | --- | --- |
| CNCc1ccccc1-c1csc(C(C)Nc2nc(C)nc3cc4c(cc23)OCCO4)c1 (racemic) | 81.4 | 27 | 3490 |  |  |
| COc1cc2ncnc(NC(C)c3cc(-c4ccccc4CNCCO)cs3)c2cc1OC (racemic) | 97.5 | 18 | 4050 |  |  |
| Cc1nc(NC(C)c2cc(-c3ccccc3CNCCO)cs2)c2cc3c(cc2n1)OCCO3 (racemic) | 85.1 | 45 | 2480 |  |  |
| CNCc1ccccc1-c1csc(C(C)Nc2ncnc3cc(OC)c(OC)cc23)c1 (racemic) | 99 | 20 | 2210 | 38.1 | > 25000 |
| CNCc1ccccc1-c1csc(C(C)Nc2ncnc3cc4c(cc23)OCCO4)c1 (racemic) | 78.5 | 97 | 2870 | 22.2 | > 25000 |
| COc1cc2ncnc(NC(C)c3ccc(-c4ccccc4CNCCO)s3)c2cc1OC (racemic) | 99.1 | 8.5 | 890 | 20.7 | > 25000 |
| COc1cc2ncnc(NC(C)c3ccc(-c4ccccc4C(N)=O)s3)c2cc1OC (racemic) | 38.7 |  |  |  |  |
| CNCc1ccccc1-c1csc([C@@H](C)Nc2nc(C)nc3cc(OC)c(OC)cc23)c1 [BAY-293] |  |  | 230 |  |  |

Now from value to molecule, other results behind:

| inhibition [1] [%] | Compound | IC50 [2] [nM] | IC50 (K562) [nM] | inhibition [3] [%] | IC50 (NCI-H838) [nM] |
| --- | --- | --- | --- | --- | --- |
| 80.2 | CC(Nc1ncnc2cc3c(cc12)OCCO3)c1cc(-c2ccccc2CNCCO)cs1 (racemic) |  |  |  |  |
| 79.4 | CC(Nc1ncnc2cc3c(cc12)OCCO3)c1ccc(-c2ccccc2CNCCO)s1 (racemic) |  |  |  |  |
| 77.3 | CNCc1ccccc1-c1ccc(C(C)Nc2nc(C)nc3cc4c(cc23)OCCO4)s1 (racemic) |  |  |  |  |
| 98.7 | CNCc1ccccc1-c1ccc(C(C)Nc2ncnc3cc(OC)c(OC)cc23)s1 (racemic) |  |  |  |  |
| 75.9 | CNCc1ccccc1-c1ccc(C(C)Nc2ncnc3cc4c(cc23)OCCO4)s1 (racemic) |  |  |  |  |
| 33.7 | COc1cc2ncnc(NC(C)c3cc(-c4ccccc4C(N)=O)cs3)c2cc1OC (racemic) |  |  |  |  |
| 61 | COc1cc2ncnc(NC(C)c3cc(-c4ccccc4N)cs3)c2cc1OC (racemic) |  |  |  |  |
| 65.7 | COc1cc2ncnc(NC(C)c3cc(-c4ccccc4O)cs3)c2cc1OC (racemic) |  |  |  |  |
| 75.2 | COc1cc2ncnc(NC(C)c3ccc(-c4ccccc4N)s3)c2cc1OC (racemic) |  |  |  |  |
| 43.9 | COc1cc2ncnc(NC(C)c3ccc(-c4ccccc4O)s3)c2cc1OC (racemic) |  |  |  |  |
| 89.1 | Cc1nc(NC(C)c2ccc(-c3ccccc3CNCCO)s2)c2cc3c(cc2n1)OCCO3 (racemic) |  |  |  |  |
